This passage reports IC50 results from patent US7829665B2 (priority 2005, dated 2010).

The target in the first experiment is T1, full-length NS3/NS4A-2 (HCV NS3 protease) (Hepatitis C virus genotype 1a, UniProt P27958).
T1 construct: Recombinant E. coli or Baculovirus full-length NS3 was diluted to 3.33 μM with assay buffer; made in house; host or cells: E. coli or baculovirus (BV) expression system
T1 sequence (P27958 1027-1657): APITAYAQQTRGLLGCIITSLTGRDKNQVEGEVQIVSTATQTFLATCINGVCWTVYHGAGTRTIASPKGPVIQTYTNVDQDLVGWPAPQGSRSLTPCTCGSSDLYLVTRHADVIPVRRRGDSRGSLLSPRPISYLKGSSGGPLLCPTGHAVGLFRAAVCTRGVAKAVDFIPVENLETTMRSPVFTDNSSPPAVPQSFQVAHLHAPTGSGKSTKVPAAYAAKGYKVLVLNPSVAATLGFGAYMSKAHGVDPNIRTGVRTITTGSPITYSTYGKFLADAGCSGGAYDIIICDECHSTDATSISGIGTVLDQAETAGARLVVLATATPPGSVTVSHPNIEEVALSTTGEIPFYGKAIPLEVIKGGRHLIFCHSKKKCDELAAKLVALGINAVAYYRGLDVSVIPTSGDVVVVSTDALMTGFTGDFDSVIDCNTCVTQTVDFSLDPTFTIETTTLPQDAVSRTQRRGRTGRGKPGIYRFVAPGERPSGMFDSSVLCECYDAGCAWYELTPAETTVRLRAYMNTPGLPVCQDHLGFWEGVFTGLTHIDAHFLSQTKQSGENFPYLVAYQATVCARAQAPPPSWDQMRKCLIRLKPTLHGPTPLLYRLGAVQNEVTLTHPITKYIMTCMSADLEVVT
In words: NS3-NS4 protease assay / NS3 inhibition assay (RETS1 substrate, fluorescence kinetic read). It is filed as biochemical.
Conditions: not given
The procedure, abridged: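 Ki values come from IC50 fits corrected via Ki=IC50/(1+[S]/Km), with Km 2.03 μM for E. coli and 1.74 μM for baculovirus full-length NS3. Enzyme (2 or 3 nM NS3, respectively, complexed with NS4A-2) sat with compound, top concentration 50 microM, for 10 min at room temperature. Cleavage of RETS1 (8 μM working solution) was then followed by fluorescence (335/495 nm) over 30 min.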
Turning to `CC(C)(C)OC(=O)N[C@H]1COCCC/C=C\[C@@H]2C[C@@]2(C(=O)NS(=O)(=O)C2CC2)NC(=O)[C@@H]2C[C@@H](OC(=O)N3Cc4cccc(Cl)c4C3)CN2C1=O` [Compound 1025], the IC50 was < 0.1 µM.
The same measure, in the same setting: next, `CC(C)(C)OC(=O)N[C@H]1CCC(O)CC/C=C\[C@@H]2C[C@@]2(C(=O)NS(=O)(=O)C2CC2)NC(=O)[C@@H]2C[C@@H](OC(=O)N3Cc4cccc(F)c4C3)CN2C1=O` (stereo partly drawn) [Compound 1018]: < 0.1 µM.

Staying with this experiment, now noted: Table 22; read-out: NS3-NS4 IC50.
On to `CC(C)(C)OC(=O)N[C@H]1CCCCC/C=C\[C@@H]2C[C@@]2(C(=O)NCC#N)NC(=O)[C@@H]2CCCN2C1=O` [Compound 2322], for which the IC50 was < 0.1 µM.

Still in this experiment, the particulars now being: recombinant E. coli or Baculovirus full-length NS3 with NS4A-2; read-out: NS3-NS4 IC50.
For the compound `CC(C)(C)OC(=O)NC1CCCCCCCC=CC2CC2(C(=O)NS(=O)(=O)c2ccccc2)NC(=O)C2CCCN2C1=O` (stereo not drawn) [Compound 2101], the IC50 is < 10 µM.
Same read-out and setting: next, `CC(C)(C)OC(=O)N[C@H]1CCCCC/C=C\[C@@H]2C[C@@]2(C(=O)NS(=O)(=O)c2cccc(Cl)c2)NC(=O)[C@@H]2CCCN2C1=O` [Compound 2110]: < 10 µM; `CN(c1ccccc1)S(=O)(=O)NC(=O)[C@@]12C[C@H]1/C=C\CCCCC[C@H](NC(=O)OC(C)(C)C)C(=O)N1CCC[C@H]1C(=O)N2` [Compound 2227]: < 10 µM; `O=C(N[C@H]1CCC(F)(F)CC/C=C\[C@@H]2C[C@@]2(C(=O)NS(=O)(=O)C2CC2)NC(=O)[C@@H]2C[C@@H](OC(=O)N3Cc4cccc(F)c4C3)CN2C1=O)OC1CCCC1` [Compound 1005]: < 0.1 µM.
Consider `CCOC(=O)[C@@]12C[C@H]1/C=C\CCCCC[C@H](NC(=O)OC(C)(C)C)C(=O)N1C[C@H](OC(=O)N3Cc4ccc(OCCN5CCOCC5)cc4C3)C[C@H]1C(=O)N2` [Compound 124], for which the IC50 was < 10 µM.
Same read-out and setting: the figure for `CC(C)(C)OC(=O)N[C@H]1CCCCC/C=C\[C@@H]2C[C@@]2(CO)NC(=O)[C@@H]2C[C@@H](OC(=O)N3Cc4cccc(F)c4C3)CN2C1=O` [Compound 153, (2R,6S,13aS,14aR,16aS,Z)-6-(tert-botoxycarbonylamino)-14a-(hydroxymethyl)-5,16-dioxo-1,2,3,5,6,7,8,9,10,11,13a,14,14a,15,16,16a-hexadecahydrocyclopropa[e]pyrrolo[1,2-α][1,4]dizacyclopentadecin-2-yl-4-fluoroisoindoline-2-carboxylate] is > 10 µM.
The same measure, in the same setting: the figure for `CC(C)(C)OC(=O)N[C@H]1CCN(S(=O)(=O)c2ccccc2[N+](=O)[O-])CC/C=C\[C@@H]2C[C@@]2(C(=O)NS(=O)(=O)C2CC2)NC(=O)[C@@H]2C[C@@H](OC(=O)N3Cc4cccc(F)c4C3)CN2C1=O` [Compound 1030, (2R,6S,13aS,14aR,16aS,Z)-6-(tert-butoxycarbonylamino)-14a-(cyclopropylsulfonylcarbamoyl)-9-(2-nitrophenylsulfonyl)-5,16-dioxo-1,2,3,5,6,7,8,9,10,11,13a,14,14a,15,16,16a-hexadecahydrocyclopropa(n)pyrrolo[2,1-c][1,4,9]triazacyclopentadecine-2-yl 4-fluoroisoindoline-2-carboxylate] is < 0.1 µM; for `COC[C@H]1CCCN1S(=O)(=O)NC(=O)[C@@]12C[C@H]1/C=C\CCCCC[C@H](NC(=O)OC(C)(C)C)C(=O)N1CCC[C@H]1C(=O)N2` [Compound 2251] it is < 0.1 µM; for `CC(C)N(C)S(=O)(=O)NC(=O)[C@@]12C[C@H]1/C=C\CCCCC[C@H](NC(=O)OC(C)(C)C)C(=O)N1CCC[C@H]1C(=O)N2` [Compound 401] it is < 10 µM.
Regarding `C[C@H](NC(=O)[C@@]12C[C@H]1/C=C\CCCCC[C@H](NC(=O)OC(C)(C)C)C(=O)N1CCC[C@H]1C(=O)N2)c1ccncc1` [Compound 501], the IC50 is > 10 µM.
`CC[C@@H]1C[C@H]2C(=O)N[C@]3(C(=O)NS(=O)(=O)C4CC4)C[C@H]3/C=C\CCCCC[C@H](NC(=O)OC(C)(C)C)C(=O)N2C1` [Compound 2145]: the IC50 was > 10 µM.
Same read-out and setting: next, `CC(C)(C)OC(=O)N[C@H]1CCCCC/C=C\[C@@H]2C[C@@]2(CNS(=O)(=O)C2CC2)NC(=O)[C@@H]2C[C@@H](OC(=O)N3Cc4cccc(F)c4C3)CN2C1=O` [Compound 154]: < 10 µM.

Usually IC50 stands for the midpoint of a concentration-inhibition curve.
